Assay results from ChEMBL document CHEMBL1129361, “Modulators of leukotriene biosynthesis and receptor activation” (J Med Chem, 1996).
Values belong to the compound of their own block, whether it stands above or below them.

Experiments:
Homo sapiens [1] = species: Homo sapiens; assay: Compound was tested for in vitro inhibition against human whole blood.; format: functional
[2] = (§1) Compound was tested for in vivo inhibition against gp antigen bronchospasm.; format: functional; conditions: Cavia porcellus, Bronchiole
RBL-1 [3] = assay: Compound was tested for in vitro inhibition against broken RBL-1.; format: functional; conditions: Rattus norvegicus
Homo sapiens [4] = species: Homo sapiens; assay: Compound was tested for in vitro inhibition against human PMNL.; format: functional
[5] = phase 1 oral half life at a dose 200 mg.; format: ADME, organism-based; conditions: human, in vivo
Rattus norvegicus [6] = assay: Compound was tested for in vivo inhibition against rat peritoneal anaphylaxis.; format: functional
Cavia porcellus [7] = assay: Compound was tested for in vivo inhibition against gp AA bronchospasm.; format: functional; conditions: Bronchiole
Mus musculus [8] = assay: Compound was tested for in vivo inhibition against mouse AA ear edema.; format: functional
Cavia porcellus [9] = assay: Compound was tested in vivo inhibitory activity against LTB4 induced bronchoconstriction (intravenous); format: functional
Cavia porcellus [10] = assay: Compound was tested in vivo inhibitory activity against LTB4 induced bronchoconstriction (orally); format: functional; conditions: po
Cavia porcellus [11] = assay: as §1; format: functional; conditions: Bronchiole
[12] = phase 1 oral half life at a dose 200 mg. (200 mg provided >95% inhibition of ex vivo stimulated LTB4 in blood up to 18 hour post dose); format: organism-based; conditions: human
[13] = molecular target: T1, Cysteinyl leukotriene receptor (Homo sapiens, UniProt Q9Y271+Q9NS75); assay: Binding affinity against Cysteinyl leukotriene D4 receptor; format: protein assay
T1 sequence (Q9Y271 whole entry): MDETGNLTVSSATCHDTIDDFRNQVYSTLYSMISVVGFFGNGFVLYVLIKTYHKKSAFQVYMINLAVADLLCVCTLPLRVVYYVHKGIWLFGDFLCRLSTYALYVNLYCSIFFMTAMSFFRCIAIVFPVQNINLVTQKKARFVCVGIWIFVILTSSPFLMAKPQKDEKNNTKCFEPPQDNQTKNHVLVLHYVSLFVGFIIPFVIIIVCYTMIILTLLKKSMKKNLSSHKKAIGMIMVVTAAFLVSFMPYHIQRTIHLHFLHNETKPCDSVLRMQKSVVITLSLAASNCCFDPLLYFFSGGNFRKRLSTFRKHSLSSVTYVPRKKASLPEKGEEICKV
T1 sequence (Q9NS75 whole entry): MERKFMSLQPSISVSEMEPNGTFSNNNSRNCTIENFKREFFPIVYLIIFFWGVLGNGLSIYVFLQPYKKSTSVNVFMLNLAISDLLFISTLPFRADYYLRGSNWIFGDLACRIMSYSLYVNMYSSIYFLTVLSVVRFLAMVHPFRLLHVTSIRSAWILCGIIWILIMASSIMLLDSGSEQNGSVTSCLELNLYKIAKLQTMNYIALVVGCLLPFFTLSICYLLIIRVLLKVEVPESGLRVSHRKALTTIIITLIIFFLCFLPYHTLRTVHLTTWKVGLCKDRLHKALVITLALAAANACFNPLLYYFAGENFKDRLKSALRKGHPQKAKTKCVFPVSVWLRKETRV

Homo sapiens [14] = assay: Compound was tested for fold shift in LTD4 dose response curve following 1 g oral dose; format: functional
Cavia porcellus [15] = assay: Compound was tested in vivo inhibitory activity against LTB4 induced bronchoconstriction in guinea pig(po); format: functional
Cavia porcellus [16] = assay: Compound was tested in vivo inhibitory activity against LTB4 induced bronchoconstriction in guinea pig (intravenous).; format: functional
Cavia porcellus [17] = species: Cavia porcellus; assay: Compound was tested for LTD4 induced guinea pig trachea contraction; format: functional; conditions: read-out: pA2 (converted)
Cavia porcellus [18] = species: Cavia porcellus; assay: Compound was evaluated for LTD4 induced against guinea pig trachea contraction; format: functional
Homo sapiens [19] = assay: LTD4 induced broncho constriction (shift in dose response curve 2 hr following 800 mg oral dose); format: functional
Cavia porcellus [20] = assay: Compound was tested in vivo for LTB4 induced neutrophil chemotaxis in guinea pig(orally) at duration 5.5 h; format: functional; conditions: po
Mus musculus [21] = assay: Compound was tested in vivo inhibitory activity against PMA induced ear edema.; format: functional
Homo sapiens [22] = species: Homo sapiens; assay: Compound was tested in vitro for inhibitory activity in LTB4 induced neutrophil degranulation; format: functional
Homo sapiens [23] = assay: Fold shift in LTD4 dose response curve following 250 mg oral dose.; format: functional
[24] = molecular target: T2, Cysteinyl leukotriene receptor 1 (Homo sapiens, UniProt Q9Y271); assay: Compound was tested for inhibitory activity against LTD4 (leukotriene).; format: functional
T2 sequence (Q9Y271 whole entry): T1 sequence (Q9Y271 whole entry)

Rattus norvegicus [25] = species: Rattus norvegicus; assay: Compound was tested for in vitro inhibition against Rat PMNL; format: functional
[26] = phase 1 oral half life at a dose 50 mg - 750 mg.; format: ADME, organism-based; conditions: human, in vivo
Rattus norvegicus [27] = assay: Compound was tested for in vivo inhibition against rat zymosan induced exudate.; format: functional
Homo sapiens [28] = assay: Compound was evaluated for LTD4 induced bronchoconstriction (shift in dose response curve 2 hr after 40 mg oral administration); format: functional
Cavia porcellus [29] = species: Cavia porcellus; assay: Compound was evaluated for LTD4 induced guinea pig trachea contraction; conditions: read-out: pA2 (converted)
Homo sapiens [30] = assay: Compound was evaluated for LTD4 induced bronchoconstriction (shift in dose response curve 2 hr after 40 mg oral administration) shift persisted for 24 hrs; format: functional
Rattus norvegicus [31] = assay: Compound was tested for in vivo inhibition against rat zymosan-inflamed air pouch; format: functional
Cavia porcellus [32] = assay: Compound was tested for in vivo inhibition against gp antigen bronchospasm; format: functional; conditions: Bronchiole
Mus musculus [33] = assay: Compound was tested for in vivo inhibition against mouse AA ear edema; format: functional
Homo sapiens [34] = species: Homo sapiens; assay: Compound was tested for in vitro inhibition against human whole blood; format: functional
Mus musculus [35] = species: Mus musculus; assay: Compound was tested for in vitro inhibition against murine macrophage; format: functional
Homo sapiens [36] = species: Homo sapiens; assay: Compound was tested for in vitro inhibition on human PMNL.; format: functional
Cavia porcellus [37] = assay: Compound was tested for in vivo inhibition on gp antigen bronchospasm.; format: functional; conditions: Bronchiole
Cavia porcellus [38] = assay: Compound was tested for in vivo inhibition on gp AA bronchospasm.; format: functional; conditions: Bronchiole
Mus musculus [39] = assay: Compound was tested for in vivo inhibition on mouse AA ear edema.; format: functional
Homo sapiens [40] = species: Homo sapiens; assay: Compound was tested for in vitro inhibition on human whole blood.; format: functional
RBL-1 [41] = assay: Compound was tested for in vitro inhibition on broken RBL-1.; format: functional; conditions: Rattus norvegicus
[42] = Phase 1 oral half life was determined; format: ADME, organism-based; conditions: human, in vivo
Rattus norvegicus [43] = assay: Compound was tested for in vivo inhibition on rat peritoneal anaphylaxis.; format: functional

SMILES: CCCc1c(OCCCOc2cc(O)c(C(C)=O)cc2CC)ccc2c1OC(C(=O)O)CC2 (centres undefined)
ED50 (Cavia porcellus [9]): 0.23 mg/kg
ED50 (Cavia porcellus [10]): 0.5 mg/kg

SMILES: C[C@H](C#Cc1ccc(Cc2ccc(F)cc2)s1)N(O)C(N)=O [ATRELEUTON]
IC50 (Homo sapiens [1]): 150 nM
ED50 (Cavia porcellus [11]): 4 mg/kg
IC50 (RBL-1 [3]): 23 nM
IC50 (Homo sapiens [4]): 23 nM
ED50 (Rattus norvegicus [6]): 0.6 mg/kg
half-life [12]: 900 min

SMILES: CCc1cc(C(C)=O)c(O)cc1OCCCCCC(C)(C)c1nn[nH]n1 [LY-255283]
ED50 (Cavia porcellus [15]): 11 mg/kg
ED50 (Cavia porcellus [16]): 2.8 mg/kg

SMILES: CC(C)(O)c1ccccc1CC[C@@H](SCC1(CC(=O)O)CC1)c1cccc(/C=C/c2ccc3ccc(Cl)cc3n2)c1 [MONTELUKAST]
Kb (Cavia porcellus [17]): 0.501 nM

SMILES: CCCCCC(O)c1cccc(OCc2ccc3ccccc3n2)c1 (centres undefined) [REV-5901]
pKB (Cavia porcellus [18]): 5.5
Ki [13]: 700 nM

SMILES: O=C(O)c1ccccc1Nc1cccc(OCc2ccc3ccccc3n2)c1 [SR-2640]
Activity (Homo sapiens [23]): <2
IC50 [24]: 23 nM

SMILES: COc1cc(C(=O)NS(=O)(=O)c2ccccc2C)ccc1Cc1cn(C)c2ccc(NC(=O)OC3CCCC3)cc12 [ZAFIRLUKAST]
Activity (Homo sapiens [28]): 117
Kb (Cavia porcellus [29]): 0.316 nM
Activity (Homo sapiens [30]): 5

SMILES: CC(c1cc2ccccc2s1)N(O)C(N)=O (centres undefined) [ZILEUTON]
IC50 (Homo sapiens [36]): 600 nM
ED50 (Cavia porcellus [37]): 12 mg/kg
ED50 (Cavia porcellus [38]): 18 mg/kg
ED50 (Mus musculus [39]): 31 mg/kg
IC50 (Homo sapiens [40]): 700 nM
IC50 (RBL-1 [41]): 100 nM
half-life [42]: 180 min
ED50 (Rattus norvegicus [43]): 3 mg/kg

Continued, in another order:

IC50 (Homo sapiens [1]): 80 nM
IC50 (RBL-1 [3]): 54 nM
IC50 (Homo sapiens [4]): 25 nM
half-life [5]: 420 min
SMILES: C[C@H](C#Cc1ccc(Oc2ccc(F)cc2)o1)N(O)C(N)=O
ED50 [2]: 2.5 mg/kg
ED50 (Rattus norvegicus [6]): 1.5 mg/kg
ED50 (Cavia porcellus [7]): 2 mg/kg
ED50 (Mus musculus [8]): 3 mg/kg

Ki [13]: 6200 nM
SMILES: CCCc1c(OCCCS(=O)(=O)c2ccc(C(=O)CCC(=O)O)cc2)ccc(C(C)=O)c1O [L-648051]

Ki [13]: 400 nM
SMILES: CCCc1c(OCCCSc2ccc([C@@H](O)[C@H](C)CC(=O)O)cc2)ccc(C(C)=O)c1O [L-649923]
Activity (Homo sapiens [14]): 3.8

Ki [13]: 3 nM
SMILES: c1ccc(Cc2nn[nH]n2)c(COc2ccc(OCc3ccc4ccccc4n3)cc2)c1 [RG-12525]
Activity (Homo sapiens [19]): 7.5

IC50 (Homo sapiens [22]): 1080 nM
SMILES: CCCc1c(OCCCOc2ccc(C(C)=O)c(OC)c2CCC)ccc2c1OC(C(=O)O)CC2 (centres undefined) [SC-41390]
ED50 (Cavia porcellus [20]): 1.7 mg/kg
ED50 (Mus musculus [21]): 4.2 µM

IC50 (Rattus norvegicus [25]): 26 nM
IC50 (Homo sapiens [1]): 11600 nM
half-life [26]: 240 min
IC50 (Homo sapiens [4]): 220 nM
SMILES: O=C(O)[C@@H](c1ccc(OCc2ccc3ccccc3n2)cc1)C1CCCC1 [VELIFLAPON]
ED50 (Cavia porcellus [11]): 6.3 mg/kg
ED50 (Rattus norvegicus [27]): 8 mg/kg
ED50 (Mus musculus [8]): 49 mg/kg

IC50 (Homo sapiens [34]): 20 nM
IC50 (Mus musculus [35]): 3 nM
SMILES: COC1(c2cc(F)cc(OCc3ccc4c(ccc(=O)n4C)c3)c2)CCOCC1 [ZD-2138]
ED50 (Rattus norvegicus [31]): 0.3 mg/kg
ED50 (Cavia porcellus [32]): 0.1 mg/kg
ED50 (Mus musculus [33]): 1.8 mg/kg
